How the values were obtained:
[1] = system: MCF7-WT cells (MCF7 ER-alpha wildtype); test: In vitro proliferation (viability) assay, CellTiter-Glo, MCF7-WT cells; type: cell-based; settings: Homo sapiens; MCF7-WT cells, 6 days, CTG vs day 0; mean ± SD-type spread (n); read-out: GI50 WT
Method: (§1) MCF7 BUS cells (Coser, et al., (2003) PNAS 100(24): 13994-13999) were maintained in Dulbecco's Modified Eagle Medium supplemented with 10% FBS, 4 mM L-glutamine and 1× non-essential amino acids. Lenti-X 293T cells (Clontech, Cat #632180) were routinely cultured in Dulbecco's Modified Eagle Medium supplemented with 10% FBS.
(§2) The QuikChange II XL Site-Directed Mutagenesis Kit (Agilent Technologies, Cat #200523) was used to generate Y537S, Y537C, Y537N and D538G mutations within the ERα exon 8. Wild-type ESR1 cDNA (GeneCopoeia Inc., Cat #GC-A0322, accession no. NM 000125) was used as a template with the following mutagenesis primers (where the underlined nucleotides represent site mutations); Y537S: F-AAGAACGTGGTGCCCCTCTCTGACCTGCTGCTGGAGATG (SEQ ID NO: 1), R-CATCTCCAGCAGCAGGTCAGAGAGGGGCACCACGTTCTT (SEQ ID NO: 2); Y537N: F-AAGAACGTGGTGCCCCTCAATGACCTGCTGCTGGAGATG (SEQ ID NO: 3), R-CATCTCCAGCAGCAGGTCATTGAGGGGCACCACGTTCTT (SEQ ID NO: 4); Y537C: F-AAGAACGTGGTGCCCCTCTGTGACCTGCTGCTGGAGATG (SEQ ID NO: 5), R-CATCTCCAGCAGCAGGTCACAGAGGGGCACCACGTTCTT (SEQ ID NO: 6); D538G: F-AACGTGGTGCCCCTCTATGGCCTGCTGCTGGAGATGCTG (SEQ ID NO: 7), R-CAGCATCTCCAGCAGCAGGCCATAGAGGGGCACCACGTT (SEQ ID NO: 8). WT and mutant ESR1 cDNAs were cloned into the designation lentiviral vector pLenti6.3/V5-Dest (Invitrogen, Cat #V533-06). To make lentivirus, DNAs (WT and mutant ESR1) were co-transfected with packaging plasmids into Lenti-X 293T cells using TransIT (Mirus, Cat #MIR 2700). 48 h post-transfection, virus containing media was filtered and added to MCF7 cells in the presence of 8 µg/ml polybrene overnight. Two days following infection, cells were placed under selection with 10 μg/ml blasticidin for 2 weeks for stable expression.
(§3) MCF7-WT and -Y537S cells were seeded at 1500 cells/well in black-walled 96-well plates (assay plates, Costar, Cat #3904). In parallel, cells were also seeded in a separate 96-well plate (8 wells/cell line, control plate) for which a CTG (CellTiter-Glo® Luminescent Viability Assay, Promega, Cat #G7572) was measured the following day (day 0 reading). The day 0 reading was used for the GI50 calculation at the termination of the experiment. The day following seeding, compounds were added to assay plates. Briefly, a 1:4 serial dilution was prepared in DMSO at 200× final concentration for a total of 10 concentrations (9 dilutions containing compound and one is DMSO only). Serially diluted compounds were pipetted into medium to prepare a compound-medium mix at 10× final concentration. 10 μl of compound-medium mix was added to MCF7-WT and -Y537S cells at 3 wells/concentration (triplicate for each concentration). On day 3, media/compound was removed and replaced with fresh media/compound as described above. On day 6, CTG was measured and compared to day 0 readings from control plate to assess GI50.

[2] = system: MCF7-Y537S cells (MCF7 ER-alpha Y537S mutant); test: In vitro proliferation (viability) assay, CellTiter-Glo, MCF7-Y537S cells; type: cell-based; settings: Homo sapiens; MCF7-Y537S cells, 6 days, CTG vs day 0; mean ± SD-type spread (n); read-out: GI50 MUT (Y537S)
Method: as §1, §2, §3

Row | SMILES | GI50 [1] | GI50 [2]
1 | CC/C(=C(/c1ccc(OCCNC/C=C/C(=O)N(C)C)cc1)c1ccc2[nH]nc(F)c2c1)c1cccnc1 [Compound 51, (E)-4-((2-(4-((E)-1-(3-fluoro-1H-indazol-5-yl)-2-(pyridin-3-yl)but-1-en-1-yl)phenoxy)ethyl)amino)-N,N-dimethylbut-2-enamide] | 20.9 nM | 347 nM
2 | CC/C(=C(\c1ccc2[nH]nc(F)c2c1)c1ccc(OCCNC/C=C/C(=O)N(C)C)cn1)c1ccccc1 [Compound 93, (E)-4-((2-((6-((Z)-1-(3-fluoro-1H-indazol-5-yl)-2-phenylbut-1-en-1-yl)pyridin-3-yl)oxy)ethyl)amino)-N,N-dimethylbut-2-enamide] | 12.4 nM | 369 nM
3 | CC/C(=C(/c1ccc(OCC(C)NC/C=C/C(=O)N(C)C)cc1)c1ccc2[nH]ncc2c1)c1ccccc1 (stereo not drawn) [Compound 92, (E)-4-((1-(4-((E)-1-(1H-indazol-5-yl)-2-phenylbut-1-en-1-yl)phenoxy)propan-2-yl)amino)-N,N-dimethylbut-2-enamide] | 2.3 nM | 26.9 nM
4 | CC/C(=C(/c1ccc(OCCNC/C=C/C(=O)N(C)C)cc1)c1ccc2[nH]ncc2n1)c1ccccc1 [Compound 63, (E)-N,N-dimethyl-4-((2-(4-((E)-2-phenyl-1-(1H-pyrazolo[4,3-b]pyridin-5-yl)but-1-en-1-yl)phenoxy)ethyl)amino)but-2-enamide] | 2.8 nM | 65.7 nM
5 | CC/C(=C(/c1ccc(OCCNC/C=C/C(=O)N(C)C)c(F)c1)c1ccc2[nH]nc(F)c2c1)c1ccccc1 [Compound 49, (E)-4-((2-(2-fluoro-4-((Z)-1-(3-fluoro-1H-indazol-5-yl)-2-phenylbut-1-en-1-yl)phenoxy)ethyl)amino)-N,N-dimethylbut-2-enamide] | 5.4 nM | 288 nM
6 | CC/C(=C(/c1ccc(OCCNC/C=C/C(=O)N(C)C)cc1)c1cc(F)c2[nH]nc(F)c2c1)c1ccccc1 [Compound 79, (E)-4-((2-(4-((E)-1-(3,7-difluoro-1H-indazol-5-yl)-2-phenylbut-1-en-1-yl)phenoxy)ethyl)amino)-N,N-dimethylbut-2-enamide] | 6.9 nM | 92.5 nM
7 | CC/C(=C(/c1ccc(OCCNC/C=C/C(=O)N(C)C)nc1)c1ccc2[nH]ncc2c1)c1ccccc1 [Compound 25, (E)-4-((2-((5-((Z)-1-(1H-indazol-5-yl)-2-phenylbut-1-en-1-yl)pyridin-2-yl)oxy)ethyl)amino)-N,N-dimethylbut-2-enamide] | 1.15 ± 0.3 nM | 19.6 ± 4.26 nM
8 | CCC/C(=C(/c1ccc(OCCNC/C=C/C(=O)N(C)C)cc1)c1ccc2[nH]nc(F)c2c1)c1ccccc1 [Compound 77, (E)-4-((2-(4-((E)-1-(3-fluoro-1H-indazol-5-yl)-2-phenylpent-1-en-1-yl)phenoxy)ethyl)amino)-N,N-dimethylbut-2-enamide] | 2.4 nM | 35 nM
9 | CC/C(=C(/c1ccc(OCCNC/C=C/C(=O)N(C)C)cc1)c1ccc2[nH]ncc2c1)c1cc(F)cc(Cl)c1 [Compound 7, (E)-4-((2-(4-((E)-2-(3-chloro-5-fluorophenyl)-1-(1H-indazol-5-yl)but-1-en-1-yl)phenoxy)ethyl)amino)-N,N-dimethylbut-2-enamide] | 1.92 nM | 74.1 ± 55.2 nM
10 | CC/C(=C(/c1ccc(OCCNC/C=C\C(=O)N(C)C)cc1)c1ccc2[nH]ncc2c1)c1ccccc1 [Compound 22, (Z)-4-((2-(4-((E)-1-(1H-indazol-5-yl)-2-phenylbut-1-en-1-yl)phenoxy)ethyl)amino)-N,N-dimethylbut-2-enamide] | 2.42 ± 1.95 nM | 21.6 ± 0.26 nM
11 | CC/C(=C(/c1ccc(OCCNC/C=C/C(=O)N(C)CCO)cc1)c1ccc2[nH]nc(F)c2c1)c1ccncc1 [Compound 75, (E)-4-((2-(4-((E)-1-(3-fluoro-1H-indazol-5-yl)-2-(pyridin-4-yl)but-1-en-1-yl)phenoxy)ethyl)amino)-N-(2-hydroxyethyl)-N-methylbut-2-enamide] | 3.2 nM | 72.2 nM
12 | CC/C(=C(/c1ccc(OCCNC/C=C/C(=O)N(C)C)cc1)c1ccc2[nH]ncc2c1F)c1ccccc1 [Compound 4, (E)-4-((2-(4-((E)-1-(4-fluoro-1H-indazol-5-yl)-2-phenylbut-1-en-1-yl)phenoxy)ethyl)amino)-N,N-dimethylbut-2-enamide] | 4.55 ± 3.34 nM | 36.3 ± 16 nM
13 | CN(C)C(=O)/C=C/CNCCOc1ccc(/C(=C(/CC(F)(F)F)c2ccc(F)cc2Cl)c2ccc3[nH]nc(F)c3c2)cc1 [Compound 87, (E)-4-((2-(4-((E)-2-(2-chloro-4-fluorophenyl)-4,4,4-trifluoro-1-(3-fluoro-1H-indazol-5-yl)but-1-en-1-yl)phenoxy)ethyl)amino)-N,N-dimethylbut-2-enamide] | 0.25 nM | 21.9 nM
14 | CC/C(=C(/c1ccc(OCCNC/C=C/C(=O)N(C)C)cc1)c1ccc2[nH]ncc2c1)c1ccccc1OC [Compound 31] | 0.83 nM | 13.1 nM
15 | CC/C(=C(/c1ccc(OC(C)CNC/C=C/C(=O)N(C)C)cc1)c1ccc2[nH]ncc2c1)c1ccccc1 (stereo not drawn) [Compound 90, (E)-4-((2-(4-((E)-1-(1H-indazol-5-yl)-2-phenylbut-1-en-1-yl)phenoxy)propyl)amino)-N,N-dimethylbut-2-enamide] | 2.5 nM | 22.7 nM
16 | CC/C(=C(/c1ccc(OCCNC/C=C/C(=O)N(C)C)cc1)c1ccc2[nH]ncc2c1)c1ccc(F)cc1Cl [Compound 74, (E)-4-((2-(4-((E)-2-(2-chloro-4-fluorophenyl)-1-(1H-indazol-5-yl)but-1-en-1-yl)phenoxy)ethyl)amino)-N,N-dimethylbut-2-enamide] | 1.8 ± 0.5 nM | 28.8 ± 14 nM
17 | CC/C(=C(/c1ccc(OCCNC/C=C/C(=O)N(C)C)cc1)c1ccc2[nH]nc(F)c2c1)c1ccncc1 [Compound 52, (E)-4-((2-(4-((E)-1-(3-fluoro-1H-indazol-5-yl)-2-(pyridin-4-yl)but-1-en-1-yl)phenoxy)ethyl)amino)-N,N-dimethylbut-2-enamide] | 2.9 nM | 85.8 nM
18 | CC/C(=C(/c1ccc(OCCNC/C=C/C(=O)N(C)C)cc1)c1cc(F)c2[nH]ncc2c1)c1ccccc1 [Compound 76, (E)-4-((2-(4-((E)-1-(7-fluoro-1H-indazol-5-yl)-2-phenylbut-1-en-1-yl)phenoxy)ethyl)amino)-N,N-dimethylbut-2-enamide] | 1.2 nM | 32.2 nM
19 | CC/C(=C(/c1ccc(OCCNC/C=C/C(=O)N(C)C)cc1)c1ccc2[nH]ncc2c1)c1ccccc1OC(F)(F)F [Compound 33, (E)-4-((2-(4-((E)-1-(1H-indazol-5-yl)-2-(2-(trifluoro-methoxy)phenyl)but-1-en-1-yl)phenoxy)ethyl)amino)-N,N-dimethylbut-2-enamide] | 2.5 nM | 29.3 nM
20 | O=C(/C=C/CNCCOc1ccc(/C(=C(\c2ccccc2)C2CCC2)c2ccc3[nH]nc(F)c3c2)cc1)N1CCC1 [Compound 40, (E)-1-(azetidin-1-yl)-4-((2-(4-((E)-2-cyclobutyl-1-(3-fluoro-1H-indazol-5-yl)-2-phenylvinyl)phenoxy)ethyl)amino)but-2-en-1-one] | 7.52 ± 4.52 nM | 94.5 ± 20.8 nM
21 | C#CCCN(C)C(=O)/C=C/CNCCOc1ccc(/C(=C(/CC)c2ccccc2)c2ccc3[nH]ncc3c2)cc1 [Compound 9, (E)-4-((2-(4-((E)-1-(1H-indazol-5-yl)-2-phenylbut-1-en-1-yl)phenoxy)ethyl)amino)-N-(but-3-yn-1-yl)-N-methylbut-2-enamide] | 5.57 nM | 118 nM

Source: US10851065B2 (Eisai R&D Management Co., Ltd., priority 2015, dated 2020)
